The test system of one assay is A2780. Kind of assay: Modified MTT assay, A2780 (parental, MMR proficient). The format is cell-based, human. Conditions: Homo sapiens, A2780, 24 hour drug exposure. The method, then: (§1) Relative drug sensitivities (Resistance Factor) and IC50 values were determined by a modified MTT assay (see, e.g., Mosmann, 1983; Plumb et al., 1989), as described below: • (1) Trypsinise a sub-confluent monolayer culture and collect cells in growth medium containing serum. Centrifuge the suspension (200 g, 5 minutes) to pellet cells, re-suspend in growth medium, and count cells. Dilute cells to a density of 5×10^3 cells/mL allowing 60 mL of cell suspension for 3 microtitre plates. Transfer cell suspension to a 10 cm petri dish, and with a multichannel pipette add 200 μL to each well of the central 10 columns of a flat bottomed 96-well plate (80 wells per plate) starting with column 2 and ending with column 11. Add 200 μL of growth medium to the 8 wells in columns 1 and 12. Put the plates in a plastic box and incubate in a humidified atmosphere at 37° C. for 2-3 days so that cells are in the exponential phase of growth for drug addition. • (2) Prepare a serial 5-fold dilution of the cytotoxic drug in growth medium to give 8 concentrations. Pipette 6 mL of growth medium in to each of 7 universal containers (30 mL). Prepare 10 mL of the highest concentration of the drug and transfer 1.5 mL of this solution to the first universal container. Mix and then transfer 1.5 mL to the next universal container. Continue until the seventh universal container is reached. The concentrations should be chosen so that the highest concentration kills most of the cells and the lowest kills none of the cells. Normally, three plates are used for each drug to give triplicate determinations within one experiment. • (3) The medium is removed from all the wells in columns 2 to 11. This can be achieved with a hypodermic needle attached to a suction line. Cells in the 8 wells in columns 2 and 11 are fed with 200 μL of fresh growth medium. The drug solutions are transferred to 10 cm petri dishes and 200 μL added to all 8 wells of a column. For ease of analysis arrange the drug solutions in order so that the highest is in column 3 down to the lowest in column 10. Plates are returned to the plastic box and incubated for 24 hours. • (4) At the end of the drug exposure period, the medium is removed from all wells containing cells and the cells are fed with 200 μL of fresh medium. • (5) The plates are fed daily for two more days. • (6) The plates are fed with 200 μL of fresh medium and 50 μL of the MTT solution (5 mg/mL in PBS) is added to all wells in columns 1 to 11. Plates are wrapped in aluminium foil and incubated for 4 hours in a humidified atmosphere at 37° C. • (7) The medium and MTT are then removed from the wells and the purple MTT-formazan crystals dissolved by addition of 200 μL of DMSO to all wells in columns 1 to 11. Glycine buffer is added (25 μL per well) to all wells containing DMSO. • (8) Absorbance is recorded at 570 nm with the wells in column 1, which contained medium and MTT but no cells used as a blank. • (9) A graph is plotted of absorbance (y-axis) against drug concentration (x-axis). The mean absorbance reading from the wells in columns 2 and 11 is used as the control absorbance and the IC50 concentration is determined as the drug concentration required to reduce the absorbance to half that of the control. IC10 or IC90 values can be determined in the same manner.
(§2) A2780/cp70 and A2780/mcp1 have lost expression of MLH1, have lost MMR activity, and have microsatellite instability compared to A2780. The CpG island at the MLH1 gene is methylated in A2780/cp70 and A2780/mcp1, but not A2780.
(§3) IC50 values (μM) for A2780, A2780/cp70, and A2780/mcp1 and Resistance Factors (RF) (the fold difference in resistance from parental A2780) were determined based on the MTT assay described above for several compounds of the present invention (including, e.g., MMR201).
In general terms: Formazan colour is commonly taken as a measure of viable cells.

Another assay relates to A2780/cp70. Kind of assay: Modified MTT assay, A2780/cp70 (cisplatin resistant, MMR deficient). The format is cell-based, human. Conditions: 24 hour drug exposure; for IC50: Homo sapiens, A2780/CP70, MTT; for A2780/cp70 RF (Resistance Factor): fold difference in resistance from parental A2780. The method, then:
as §1, §2, §3

For the next assay, the system named is A2780/mcp1. Briefly: Modified MTT assay, A2780/mcp1 (cisplatin resistant, MMR deficient). In kind it is cell-based, human. The following applies: 24 hour drug exposure; for IC50: Homo sapiens, A2780/mcp1, MTT; for A2780/mcp1 RF (Resistance Factor): fold difference in resistance from parental A2780. On the procedure: as §1, §2, §3
Assay [1] deals with A1 (MLH1+ve, MMR proficient). Briefly: Modified MTT assay, A1 line (A2780/cp70 + chromosome 3, MLH1 +ve). In kind it is cell-based, human. The following applies: Homo sapiens, A2780/CP70, read-out: A1 or E1 MLH1 +ve MMR proficient IC50. The method, then:
as §1
(§4) A1, E1, and A2 are derived by transfer of human chromosome 3 into A2780/cp70. MLH1 is located on chromosome 3.
(§5) IC50 values (μM) for A1 (MLH1+ve, MMR proficient) or E1 (MLH1+ve, MMR proficient) and A2 (MLH1−ve, MMR deficient) lines and Resistance Factors (RF) (the fold difference in resistance between the A2 line, MMR deficient, and the A1 line, MMR proficient) were determined based on the MTT assay described above for several compounds of the present invention (including, e.g., MMR201). Compounds showing increased activity against the MLH1 deficient A2 line compared to the MLH1 proficient A1 or E1 line have RF values less than 1.

Assay [2] concerns A2 (MLH1−ve, MMR deficient). Briefly: Modified MTT assay, A2 line (A2780/cp70 + chromosome 3, MLH1 -ve). The following applies: for IC50: Homo sapiens, A2780/CP70, A2 line. In kind it is cell-based, human. On the procedure: as §1, §4, §5
In assay [3] the test system is E1 (MLH1+ve, MMR proficient). Kind of assay: Modified MTT assay, E1 line (A2780/cp70 + chromosome 3, MLH1 +ve). The format is cell-based. Conditions: Homo sapiens, read-out: A1 or E1 MLH1 +ve MMR proficient IC50. On the procedure:
Relative drug sensitivities (Resistance Factor) and IC50 values were determined by a modified MTT assay (see, e.g., Mosmann, 1983; Plumb et al., 1989), as described below: • (1) Trypsinise a sub-confluent monolayer culture and collect cells in growth medium containing serum. Centrifuge the suspension (200 g, 5 minutes) to pellet cells, re-suspend in growth medium, and count cells. Dilute cells to a density of 5×10^3 cells/mL allowing 60 mL of cell suspension for 3 microtitre plates. Transfer cell suspension to a 10 cm petri dish, and with a multichannel pipette add 200 μL to each well of the central 10 columns of a flat bottomed 96-well plate (80 wells per plate) starting with column 2 and ending with column 11. Add 200 μL of growth medium to the 8 wells in columns 1 and 12. […] Glycine buffer is added (25 μL per well) to all wells containing DMSO. • (8) Absorbance is recorded at 570 nm with the wells in column 1, which contained medium and MTT but no cells used as a blank. • (9) A graph is plotted of absorbance (y-axis) against drug concentration (x-axis). The mean absorbance reading from the wells in columns 2 and 11 is used as the control absorbance and the IC50 concentration is determined as the drug concentration required to reduce the absorbance to half that of the control. IC10 or IC90 values can be determined in the same manner. […]

Setting [4] is: fold difference in resistance between A2 (MMR deficient) and A1 (MMR proficient).

The structures appear in SMILES notation.

Take `CC[n+]1c(/C=C2\Sc3oc4ccccc4c3N2C)ccc2ccccc21.[I-]` [MMR211]: the IC50 (commonly the midpoint of a concentration-inhibition curve) turned out to be 69 ± 7 nM in the assay with A2780; 40 ± 4 nM in the assay on A2780/cp70; 38 ± 6 nM in the assay on A2780/mcp1; 144 ± 9 nM in assay [1]; 27 ± 3 nM in assay [2]. In the assay with A2780/cp70, the “A2780/cp70 RF (Resistance Factor)” value came out at 0.58. Moreover, in the assay with A2780/mcp1, the “A2780/mcp1 RF (Resistance Factor)” value was 0.55. The “RF (Resistance Factor)” value in assay [2] (setting [4]) was 0.19.

Turning to `CC[n+]1ccccc1/C=C1\SC=CN1C.[I-]` [MMR302], the IC50 with A2780 turned out to be 13600 ± 1550 nM; in the assay on A2780/cp70, 7100 ± 370 nM; with A2780/mcp1, 12900 ± 1000 nM; in assay [1], 2830 ± 460 nM; in assay [2] it was 4150 ± 800 nM. Besides, the “A2780/cp70 RF (Resistance Factor)” value in the assay on A2780/cp70 worked out at 0.52. The “A2780/mcp1 RF (Resistance Factor)” value with A2780/mcp1 was 0.95. Also, the “RF (Resistance Factor)” value in assay [2] (setting [4]) stood at 1.5.

As for `CC[n+]1ccccc1/C=C1\SC=C(C)N1C.[I-]` [MMR304], the IC50 in the assay with A2780 stood at 64500 ± 3910 nM; with A2780/cp70, 18000 ± 1300 nM; in the assay with A2780/mcp1 it was 35600 ± 1960 nM; in assay [1] it was 54200 ± 10800 nM; in assay [2] it was 16100 ± 2540 nM. Further, the “A2780/cp70 RF (Resistance Factor)” value in the assay with A2780/cp70 worked out at 0.28. The “A2780/mcp1 RF (Resistance Factor)” value in the assay with A2780/mcp1 was 0.55. Moreover, the “RF (Resistance Factor)” value in assay [2] (setting [4]) is listed as 0.30.

With `CC[n+]1c(/C=C2\SC=CN2C)ccc2ccccc21.[I-]` [MMR212], the IC50 in the assay on A2780 is 1670 ± 370 nM; with A2780/cp70 it was 435 ± 22 nM; in the assay with A2780/mcp1, 481 ± 48 nM; in assay [1] it was 4100 ± 450 nM; in assay [2], 681 ± 76 nM. In addition, the “A2780/cp70 RF (Resistance Factor)” value in the assay with A2780/cp70 came to 0.26. Moreover, the “A2780/mcp1 RF (Resistance Factor)” value with A2780/mcp1 is 0.29. Moreover, the “RF (Resistance Factor)” value in assay [2] (setting [4]) was 0.17.

`CC[n+]1c(/C=C2\SC=C(C)N2C)ccc2ccccc21.[I-]` [MMR213]: the IC50 stood at 1230 ± 51 nM in the assay with A2780; 325 ± 44 nM with A2780/cp70; 358 ± 103 nM in the assay with A2780/mcp1; 2550 ± 180 nM in assay [1]; 530 ± 18 nM in assay [2]. Further, the “A2780/cp70 RF (Resistance Factor)” value in the assay on A2780/cp70 is listed as 0.26. Besides, in the assay on A2780/mcp1, the “A2780/mcp1 RF (Resistance Factor)” value is 0.29. Moreover, in assay [2] (setting [4]), the “RF (Resistance Factor)” value is given as 0.21.

Turning to `CC[n+]1ccccc1/C=C1\Sc2oc3ccccc3c2N1C.[I-]` [MMR307], the IC50 in the assay with A2780 worked out at 752 ± 73 nM; with A2780/cp70 it was 932 ± 95 nM; with A2780/mcp1, 716 ± 41 nM; in assay [3] it was 937 ± 66 nM; in assay [2], 648 ± 85 nM. Also, the “A2780/cp70 RF (Resistance Factor)” value in the assay on A2780/cp70 is recorded as 1.24. For the same compound, the “A2780/mcp1 RF (Resistance Factor)” value in the assay on A2780/mcp1 was 0.95. Besides, the “RF (Resistance Factor)” value in assay [2] (A2 (MMR deficient) versus E1 (MMR proficient)) is 0.69.
